Measurements from the supplement of paper PMC11208160.

Test: recombinant UMI read abundance after kanamycin selection (control-corrected) (log10(CPM+1)); higher = more efficient recombination; extreme values may be limits of the assay; sequences stand for … in AGTGCAGAGAAAATCGGCCAGTTTTCTCTGCCTGCAGTCCGCATGCCGTGGGACCCCTTGGGTTCTAACCTGTTGCCTAGATTTATGCAGCGGACTGCCTTTCTCCCAAAGTGATAAACCGG…AGGTTGGTTTCACT; site = the 11-nt donor
How it was run: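 In Escherichia coli, a pool of donor and donor-binding-loop pairs, each with a 12-nt UMI, was tested for the IS621 bridge recombinase. Plating was on IPTG (0.07 mM) plus kanamycin, or without selection, in two replicates. Recombinant UMIs were amplified by PCR across the donor–target junction and sequenced, and counts were reported as log10(CPM+1) after averaging and control-derived scaling.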
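Note: IS621 bridge recombinase in Escherichia coli cells against a fixed T5 target plasmid.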

Sequence	recombinant UMI read abundance (log10)
AGTTAGGCATGGACCGGTTTTCCCGGTAATCCGTATTTGGA (site AGTTAGGCTTC)	0.957
AGTTCAGCATGGACCGGTTTTCCCGGTAATCCGTATTTGAT (site AGTTCAGCTAT)	1.05
AGTTCCTCATGGACCGGTTTTCCCGGTAATCCGTATTTGCA (site AGTTCCTCTTG)	2.47
AGTTCGACATGGACCGGTTTTCCCGGTAATCCGTATTTGAC (site AGTTCGACTGT)	0.845
AGTTGATCATGGACCGGTTTTCCCGGTAATCCGTATTTGAC (site AGTTGATCTGT)	1.28
AGTTGCTCATGGACCGGTTTTCCCGGTAATCCGTATTTGAA (site AGTTGCTCTTT)	0.47
AGTTGGCCATGGACCGGTTTTCCCGGTAATCCGTATTTGGG (site AGTTGGCCTCC)	0.0248
AGTTGTTCATGGACCGGTTTTCCCGGTAATCCGTATTTGTT (site AGTTGTTCTAA)	0.233
AGTTTCCCATGGACCGGTTTTCCCGGTAATCCGTATTTGTG (site AGATTCCCTCA)	0.0216
AGTTTCCCATGGACCGGTTTTCCCGGTAATCCGTATTTGTG (site AGCTTCCCTCA)	0.0227
AGTTTCCCATGGACCGGTTTTCCCGGTAATCCGTATTTGTG (site AGGTTCCCTCA)	0.0056
AGTTTCCCATGGACCGGTTTTCCCGGTAATCCGTATTTGTG (site AGTTTCCCTCA)	0.0252
AGTTTGCCATGGACCGGTTTTCCCGGTAATCCGTATTTGAA (site AGTTTGCCTTT)	0.00758
ATAAACCCATGGACCGGTTTTCCCGGTAATCCGTATTTGAT (site ATAAACCCTAT)	1.19
ATAAACTCATGGACCGGTTTTCCCGGTAATCCGTATTTGCG (site ATAAACTCTCG)	3.23
ATAAAGGCATGGACCGGTTTTCCCGGTAATCCGTATTTGCT (site AAAAAGGCTAG)	0.238
ATAAAGGCATGGACCGGTTTTCCCGGTAATCCGTATTTGCT (site ACAAAGGCTAG)	1.63
ATAAAGGCATGGACCGGTTTTCCCGGTAATCCGTATTTGCT (site AGAAAGGCTAG)	0.349
ATAAAGGCATGGACCGGTTTTCCCGGTAATCCGTATTTGCT (site ATAAAGGCTAG)	2.75

Sequence	recombinant UMI read abundance (log10)
ATAACGCCATGGACCGGTTTTCCCGGTAATCCGTATTTGAG (site ATAACGCCTCT)	0.00694
ATAACGCCATGGACCGGTTTTCCCGGTAATCCGTATTTGTC (site ATAACGCCTGA)	1.58
ATAAGGCCATGGACCGGTTTTCCCGGTAATCCGTATTTGAA (site ATAAGGCCTAT)	0.00331
ATAAGGCCATGGACCGGTTTTCCCGGTAATCCGTATTTGAA (site ATAAGGCCTCT)	0.0201
ATAAGGCCATGGACCGGTTTTCCCGGTAATCCGTATTTGAA (site ATAAGGCCTGT)	0
ATAAGGCCATGGACCGGTTTTCCCGGTAATCCGTATTTGAA (site ATAAGGCCTTT)	0.404
ATAAGGCCATGGACCGGTTTTCCCGGTAATCCGTATTTGAG (site ATAAGGCCTAT)	0.00358
ATAAGGCCATGGACCGGTTTTCCCGGTAATCCGTATTTGAG (site ATAAGGCCTCT)	0.325
ATAAGGCCATGGACCGGTTTTCCCGGTAATCCGTATTTGAG (site ATAAGGCCTGT)	0
ATAAGGCCATGGACCGGTTTTCCCGGTAATCCGTATTTGAG (site ATAAGGCCTTT)	0.025
ATAAGGGCATGGACCGGTTTTCCCGGTAATCCGTATTTGAC (site ATAAGGACTGT)	2.61
ATAAGGGCATGGACCGGTTTTCCCGGTAATCCGTATTTGAC (site ATAAGGCCTGT)	0.00415
ATAAGGGCATGGACCGGTTTTCCCGGTAATCCGTATTTGAC (site ATAAGGGCTGT)	2.79
ATAAGGGCATGGACCGGTTTTCCCGGTAATCCGTATTTGAC (site ATAAGGTCTGT)	2.53
ATAAGGTCATGGACCGGTTTTCCCGGTAATCCGTATTTGAC (site ATAAGGACTGT)	1.91
ATAAGGTCATGGACCGGTTTTCCCGGTAATCCGTATTTGAC (site ATAAGGCCTGT)	1.04
ATAAGGTCATGGACCGGTTTTCCCGGTAATCCGTATTTGAC (site ATAAGGGCTGT)	0.526
ATAAGGTCATGGACCGGTTTTCCCGGTAATCCGTATTTGAC (site ATAAGGTCTGT)	3.4
ATACACACATGGACCGGTTTTCCCGGTAATCCGTATTTGGG (site ATACACACTCC)	0.537

Sequence	recombinant UMI read abundance (log10)
ATACAGCCATGGACCGGTTTTCCCGGTAATCCGTATTTGGT (site ATACAGCCTAC)	0.00946
ATACATCCATGGACCGGTTTTCCCGGTAATCCGTATTTGAC (site AAACATCCTGT)	0
ATACATCCATGGACCGGTTTTCCCGGTAATCCGTATTTGAC (site ACACATCCTGT)	0
ATACATCCATGGACCGGTTTTCCCGGTAATCCGTATTTGAC (site AGACATCCTGT)	0
ATACATCCATGGACCGGTTTTCCCGGTAATCCGTATTTGAC (site ATACATCCTGT)	1.12
ATACGAACATGGACCGGTTTTCCCGGTAATCCGTATTTGTC (site AAACGAACTGA)	0
ATACGAACATGGACCGGTTTTCCCGGTAATCCGTATTTGTC (site ACACGAACTGA)	0
ATACGAACATGGACCGGTTTTCCCGGTAATCCGTATTTGTC (site AGACGAACTGA)	0
ATACGAACATGGACCGGTTTTCCCGGTAATCCGTATTTGTC (site ATACGAACTGA)	2.83
ATACGGACATGGACCGGTTTTCCCGGTAATCCGTATTTGAA (site ATACGGACTTT)	1.39
ATACTATCATGGACCGGTTTTCCCGGTAATCCGTATTTGCA (site ACAGTATCTTG)	1.72
ATACTATCATGGACCGGTTTTCCCGGTAATCCGTATTTGCA (site ATACTATCTTG)	2.84
ATAGACCCATGGACCGGTTTTCCCGGTAATCCGTATTTGAT (site ATAGACCCTAT)	1.21
ATAGAGACATGGACCGGTTTTCCCGGTAATCCGTATTTGGT (site ATAGAGACTAC)	1.75
ATAGAGACATGGACCGGTTTTCCCGGTAATCCGTATTTGGT (site ATCGAGACTAC)	0.671
ATAGAGACATGGACCGGTTTTCCCGGTAATCCGTATTTGGT (site ATGGAGACTAC)	0.992
ATAGAGACATGGACCGGTTTTCCCGGTAATCCGTATTTGGT (site ATTGAGACTAC)	1.03
ATAGATACATGGACCGGTTTTCCCGGTAATCCGTATTTGCC (site ATAGATACTGG)	2.54
ATAGCCTCATGGACCGGTTTTCCCGGTAATCCGTATTTGTA (site ATAGCCTCTTA)	2.86
